Where “and” joins values, the source holds several entries; their conditions need not be identical. Equal entries are not always repeated.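 Briefly, cells in 96-well plates were exposed to five compound concentrations for 48 h, and endpoints were estimated by linear interpolation. At the GI50, growth is halved. TGI denotes the concentration required for complete inhibition of growth.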
Experiments:
Assay in all cases: NCI anticancer screen, dose series, 48 h
ACHN renal = tested on: ACHN renal
SW-620 colon = tested on: SW-620 colon
RPMI-8226 leukemia = tested on: RPMI-8226 leukemia
SF-295 CNS = tested on: SF-295 CNS
HOP-62 NSCLC = tested on: HOP-62 NSCLC
MOLT-4 leukemia = tested on: MOLT-4 leukemia
TK-10 renal = tested on: TK-10 renal
NCI-H23 lung = tested on: NCI-H23 lung
HT29 colon = tested on: HT29 colon
NCI-H522 lung = tested on: NCI-H522 lung

Row | Compound | TGI (ACHN renal) | TGI (SW-620 colon) | TGI (RPMI-8226 leukemia) | TGI (SF-295 CNS) | TGI (HOP-62 NSCLC) | TGI (MOLT-4 leukemia) | TGI (TK-10 renal) | TGI (NCI-H23 lung) | TGI (HT29 colon) | TGI (NCI-H522 lung) | GI50 (ACHN renal) | GI50 (SW-620 colon) | GI50 (RPMI-8226 leukemia) | GI50 (SF-295 CNS) | GI50 (HOP-62 NSCLC) | GI50 (MOLT-4 leukemia) | GI50 (NCI-H23 lung) | GI50 (HT29 colon) | GI50 (NCI-H522 lung) | GI50 (TK-10 renal)
1 | O=c1c2ccccc2[nH]c(=S)n1-c1ccc(Br)cc1 | > 100 µM | > 100 µM | > 100 µM | > 100 µM | > 100 µM | > 100 µM | > 100 µM | > 100 µM | > 100 µM | > 100 µM |  |  |  |  |  |  |  |  |  | 
2 | Cn1c2c(c3ccccc31)CCN(CCCCN1CCc3c(n(C)c4ccccc34)C1=O)C2 | > 100 µM | > 100 µM | > 100 µM | > 100 µM | > 100 µM | > 100 µM | > 100 µM | > 100 µM | > 100 µM | > 100 µM |  |  |  |  |  |  |  |  |  | 
3 | Cc1cc(C)nc(NS(=O)(=O)c2ccc(Nc3c4ccccc4nc4c(C(=O)Nc5ccc(S(=O)(=O)N=C(N)N)cc5)ccc(Cl)c34)cc2)n1 | > 100 µM |  | 80.1 µM | > 100 µM | 54.8 µM | 64.8 µM | 95.5 µM | 43.7 µM | > 100 µM | 29.4 µM |  |  |  |  |  |  |  |  |  | 
4 | O=P(O)(CCP(=O)(O)c1ccccc1)c1ccccc1 | > 100 µM | > 100 µM | > 100 µM | > 100 µM | > 100 µM | > 100 µM | > 100 µM | > 100 µM | > 100 µM | > 100 µM |  |  |  |  |  |  |  |  |  | 
5 | COc1cc(C2CC(c3ccc(C)cc3)=NN2C=O)ccc1Oc1ccnc2cc(Cl)ccc12 (centres undefined) | > 50 µM | > 50 µM | > 50 µM | 23.7 µM | 8.95 µM | > 50 µM |  | > 50 µM | > 50 µM | > 50 µM | 4.39 µM | > 50 µM | > 50 µM | 4.41 µM | 1.68 µM | > 50 µM | 6.93 µM | > 50 µM | 2.72 µM | 
6 | O=C(CN1CCN(c2ncccn2)CC1)Nc1ccc(Cl)cc1C(=O)c1ccccc1Cl | > 100 µM | > 100 µM | > 100 µM | > 100 µM | 57.5 µM | > 100 µM | > 100 µM | > 100 µM | > 100 µM | > 100 µM | > 100 µM | > 100 µM | 9.51 µM | > 100 µM | 13.2 µM | 21.9 µM | > 100 µM | 63.6 µM | 46.6 µM | > 100 µM
7 | COc1ccc2nc(N/N=C(\C)c3ccccn3)cc(C)c2c1 | 1.21 µM | 1.75 µM | 1.36 µM | 0.391 µM | 1.11 µM | 0.488 µM | 0.991 µM | 4.46 µM |  | 1.88 µM | 0.22 µM | 0.381 µM | 0.369 µM | 0.0487 µM | 0.259 µM | 0.131 µM | 0.44 µM | 0.116 µM | 0.292 µM | 0.207 µM
8 | O=C1NCc2ccc3c(-c4cccc(Cl)c4)c[nH]c3c21 | > 50 µM | > 50 µM | 49 µM | > 50 µM | > 50 µM | > 50 µM | > 50 µM | > 50 µM | > 50 µM | > 39 µM | 0.333 µM | 0.195 µM | 0.257 µM | 0.199 µM | 0.324 µM | 0.256 µM | 0.484 µM | 0.18 µM | 0.225 µM | 7.12 µM
9 | N#Cc1c(-c2nc3ccccc3s2)c(=O)oc2cc(O)ccc12 | > 100 µM | > 100 µM | > 100 µM | > 100 µM | 57.3 µM | > 100 µM | > 100 µM | > 100 µM | > 100 µM | > 100 µM |  |  |  |  |  |  |  |  |  | 
10 | CN1CC[C@@H](c2c(O)cc(O)c3c(=O)cc(-c4ccccc4Cl)oc23)[C@@H](O)C1 | 15.6 µM | 23.2 µM | 0.233 µM and 1.36 µM |  |  | 0.662 µM and 0.521 µM | 34.8 µM | 0.23 µM and 0.301 µM and 0.189 µM | 24.8 µM | 0.222 µM and 0.319 µM | 0.0346 µM | 0.0594 µM and 0.0653 µM | 0.0753 µM and 0.0274 µM | 0.0994 µM and 0.0955 µM and 0.0425 µM | 0.117 µM and 0.0384 µM | 0.0429 µM and 0.0288 µM | 0.0908 µM and 0.103 µM and 0.0453 µM | 0.178 µM |  | 0.119 µM and 0.0937 µM
11 | COc1ccc(-c2nn3ncccc3c2-c2ccnc(Nc3ccc(Cl)c(C(F)(F)F)c3)n2)cc1 | > 25 µM | > 25 µM | > 25 µM | > 25 µM | > 25 µM | > 25 µM | > 25 µM | > 25 µM | > 25 µM | > 25 µM | 10.1 µM | 14.4 µM | 8.28 µM | 9.96 µM | 15.5 µM | 10.9 µM | 10.6 µM | 9.88 µM | 12.4 µM | 13.2 µM
12 | O=C(c1ccccc1)C(C(=O)c1ccccc1)C1(O)C(=O)c2ccccc2C1=O | > 100 µM | > 100 µM | > 100 µM | > 100 µM | > 100 µM | > 100 µM | 55.2 µM | 84.6 µM | > 100 µM | 42.2 µM |  |  |  |  |  |  |  |  |  | 
13 | CNC(=O)c1cc(OC2CCC(NC(=O)Nc3ccc(Cl)c(C(F)(F)F)c3)CC2)ccn1 (centres undefined) | 31.5 µM | 31.2 µM | 14.8 µM | 26.6 µM | 31.4 µM | 21.5 µM | 49.2 µM | 20.4 µM | 16.2 µM | 16.9 µM | 7.76 µM | 11.5 µM | 2.86 µM | 4.95 µM | 15 µM | 4 µM | 4.47 µM | 4.25 µM | 4.16 µM | 18.4 µM
14 | COC1=CC(=O)c2ccccc2C1(CCC=C(C)C)C1=NC(C)(C)CO1 (centres undefined) | > 100 µM | > 100 µM | > 100 µM | > 100 µM | > 100 µM | > 100 µM | > 100 µM | > 100 µM | > 100 µM | > 100 µM |  |  |  |  |  |  |  |  |  | 
15 | CCN(CC)CCOc1nc2ccc(OC)cc2c2c1-c1ccc(OC)cc1C2=O | 1.79 µM | 1.61 µM | 2.24 µM | 1.74 µM | 6.19 µM | 1.85 µM | 2.95 µM | 3.23 µM | 1.86 µM | 1.81 µM | 0.476 µM | 0.253 µM | 0.601 µM | 0.519 µM | 1.33 µM | 0.283 µM | 1.25 µM | 0.545 µM | 0.394 µM | 1.38 µM
16 | COc1cccc(C2CC(C)(N3CCCC3)Oc3cc4c(cc32)OCO4)c1O (centres undefined) | > 100 µM | > 100 µM | > 81 µM | 59.6 µM | 90.1 µM | > 73.4 µM | > 93.9 µM | 71 µM | 45.3 µM | 47.2 µM |  |  |  |  |  |  |  |  |  | 
17 | CS(=O)(=O)CCNCc1nc(-c2ccc3ncnc(Nc4ccc(F)c(Cl)c4)c3c2)cs1 | > 25 µM | > 25 µM | > 25 µM | > 25 µM | > 25 µM | > 25 µM | > 25 µM | > 25 µM | > 25 µM | > 25 µM | 0.785 µM | > 25 µM | > 21.4 µM | > 25 µM | > 24.1 µM | 15.3 µM | > 25 µM | 16.5 µM | 3.34 µM | 0.232 µM
18 | C=C1C(=O)O[C@H]2[C@H]1CC/C(COC(=O)c1cc3cc(F)ccc3[nH]1)=C\CC[C@@]1(C)O[C@@H]21 | 2.94 µM | 4.09 µM | 7.09 µM | 21.6 µM | 14.9 µM | 9.23 µM | 3.3 µM | 4.26 µM | 3.14 µM | 3.38 µM | 1.46 µM | 1.43 µM | 2 µM | 7.1 µM | 2.92 µM | 2.26 µM | 1.9 µM | 1.13 µM | 1.66 µM | 1.83 µM
19 | CCOC/N=C(/N)NC#N | > 100 µM | 35.3 µM | > 100 µM | > 100 µM | > 100 µM | > 100 µM | > 100 µM | > 100 µM | > 100 µM | > 100 µM |  |  |  |  |  |  |  |  |  | 
20 | COc1ccc2c(c1)[nH]c(=O)c1c3cc(C)c(C)cc3cn21 | 1.58 µM | 1.47 µM | 0.0656 µM |  | 1.9 µM | 0.281 µM | 1.27 µM | 0.392 µM |  | < 0.0275 µM | < 0.0173 µM | < 0.01 µM | < 0.01 µM | < 0.01 µM | < 0.0185 µM | < 0.0176 µM | 0.0305 µM | < 0.01 µM | < 0.0115 µM | 0.32 µM
21 | CC[C@H](C)N(CCN)C(=O)c1cc2ccccc2c(-c2ccccc2Cl)n1 | 28.1 µM | 30 µM | 32.4 µM | 28.4 µM | 33.3 µM | 24.9 µM | 25.5 µM | 28.6 µM | 20.5 µM | 34 µM |  |  |  |  |  |  |  |  |  | 
22 | CCc1cccc(C(C)C)c1NC(=O)C(=O)C(Cc1nc2ccccc2[nH]c1=O)C(=O)OC (centres undefined) | > 100 µM |  | > 100 µM | > 100 µM | > 100 µM | > 100 µM | > 100 µM | > 100 µM | > 100 µM | > 100 µM |  |  |  |  |  |  |  |  |  | 
23 | COc1cc([C@H]2c3cc4c(cc3O[C@@]3(O)COC(=O)[C@@H]23)OCO4)cc(OC)c1OC | > 100 µM | > 100 µM | > 100 µM | > 100 µM | > 100 µM | > 100 µM | > 100 µM |  | > 100 µM | > 100 µM |  |  |  |  |  |  |  |  |  | 
